The values below come from US9174979B2, “Phenanthroindolizidine compound and NFκB inhibitor containing same as active ingredient” (KABUSHIKI KAISHA YAKULT HONSHA, priority 2008, dated 2015).

In brackets after ≈: the same amount, converted by molar mass. Where two headings read alike, the source gives them in different places.

The test system of data set [1] is human colon cancer SW480 cells. The experiment in a line: Inhibitory action on the proliferation of SW480 cells. The format is cell-based. The settings on record: 48 hours culture, TetraColor ONE; for IC50: Homo sapiens, SW480. The method, then:
(§1) The action of the phenanthroindolizidine alkaloid compound of the present invention on the proliferation of human colon cancer SW480 cells, HT-29 cells, and human non-small cell lung cancer A549 cells was studied. The SW480 cells were suspended in a 10% FBS/RPMI1640 and then seeded in a 96-well microplate, followed by culturing in 5% CO2 at 37° C. (2000 cells/well). The A549 cells and the HT-29 cells were each suspended in a DMEM medium containing 10% FBS, 100 U/mL penicillin, and 100 μg/mL streptomycin (10% FBS/DMEM) and a DMEM F-12 HAM medium containing 10% FBS, 100 U/mL penicillin, and 100 μg/mL streptomycin (10% FBS/DMEM F12 HAM), and then seeded in 96-well microplates, followed by culturing in 5% CO2 at 37° C. (1000 cells/well). After an overnight culture, the compound of the present invention was added, followed by further culturing for 48 hours (SW480 cells) and 96 hours (A549 cells and HT-29 cells). After culturing, the number of viable cells was counted using TetraColor ONE (Seikagaku Corporation) in accordance with the attached operating procedure. The results were expressed as the concentration of a test compound needed for 50% inhibition of the proliferation of the cells (IC50).

In data set [2] the test system is human colon cancer HT-29 cells. The data set is described as follows: Inhibitory action on the proliferation of HT-29 cells. The format is cell-based. The following applies: 96 hours culture, TetraColor ONE; for IC50: Homo sapiens, HT-29. The method, then: as §1
Data set [3] concerns mice. The data set is described as follows: Animal toxicity test in mice transplanted with Meth A cells. Type of data set: in vivo, mouse. The settings on record: intravenous on days 1, 5, 9, observed for three weeks. The method, then: Also, the toxicity of known phenanthroindolizidine alkaloid compounds in mice, namely (12aS,13S)-6,7-dimethoxy-9,10,11,12,12a,13-hexahydro-9a-aza-cyclopenta[b]triphenylene-3,13-diol (known compound 1; refer to WO01/023384) and (12aS,13S)-3,6,7-trimethoxy-9,10,11,12,12a,13-hexahydro-9a-aza-cyclopenta[b]triphenylene-13-ol (known compound 2; refer to Planta Med., 2002, 68: 186-188), was simultaneously studied. To a control group, a physiological saline solution as a solvent, was administered.

For data set [4], the system named is SV40 promoter. The data set is described as follows: SV40 promoter luciferase reporter assay in SW480/SV40-Luc cells. The format is cell-based, human. The following applies: for IC50: Homo sapiens. The text has this:
(§2) The action of the phenanthroindolizidine alkaloid compound of the present invention on the NFκB activity was studied in a luciferase assay. Human colon cancer SW480 cells were transfected with pNFκB-Luc Plasmid (Stratagene), which is a reporter vector in which a five-time tandem repeat of the NFκB responsive element (NRE) is integrated into the upstream of the luciferase gene, using Lipofectamine 2000 (Invitrogen Corporation) in accordance with the attached operating procedure. Subsequently, the cells were cultured in an RPMI1640 medium containing 10% FBS, 100 U/mL penicillin, 100 μg/mL streptomycin, and 0.5 mg/mL G418 to produce SW480 cells having the luciferase gene, the expression of which is regulated by NRE, stably introduced therein (SW480/NRE-Luc cells). Likewise, SW480 cells were transfected with pGL3-Control Vector (Promega Corporation), which is a reporter vector in which the SV40 promoter is integrated into the upstream of the luciferase gene, to produce SW480 cells having the luciferase gene, the expression of which is regulated by the SV40 promoter, stably introduced therein (SW480/SV40-Luc cells). The SW480/NRE-Luc cells or the SW480/SV40-Luc cells were suspended in an RPMI1640 medium containing 10% FBS, 100 U/mL penicillin, and 100 μg/mL streptomycin (10% FBS/RPMI1640), and then seeded in a 96-well microplate, followed by culturing under conditions of 5% CO2 and at 37° C. (5000 cells/well). After an overnight culture, the compound of the present invention was added, followed by culturing for one hour. Further, 50 ng/mL TNFα (Sigma-Aldrich Corporation) was added, followed by culturing for four hours. Subsequently, a Steady-Glo Luciferase Assay reagent (Promega Corporation) was added, and the luminescent intensity was detected by SpectraMax M5e (Molecular Devices, Inc.) to measure the intracellular luciferase activity. It is to be noted that the action of the compound of the present invention on the NFκB activity or the SV40 promoter activity was shown as IC50 values (the concentration of a test compound needed for 50% inhibition of the induction of the luciferase expression).
On the technique in general: Reporter assays use an easily measured gene product as a stand-in for the process of interest.

The subject of data set [5] is NFκB. The experiment in a line: NFκB luciferase reporter assay in SW480/NRE-Luc cells stimulated with TNFα. Type of data set: cell-based, human. The following applies: for IC50: Homo sapiens.
From the text: as §2

Data set [6] relates to human non-small cell lung cancer A549 cells. The data set is described as follows: Inhibitory action on the proliferation of A549 cells. The format is cell-based. The following applies: 96 hours culture, TetraColor ONE; for IC50: Homo sapiens, A549. The protocol: as §1
The mark [7] stands for this setting: SW480, read-out: SV40 promoter inhibitory activity IC50.
The mark [8] stands for this setting: SW480, read-out: NFκB inhibitory activity IC50.
[9] abbreviates: SW480/SV40-Luc cells, luciferase expression.
Where [10] appears, read: SW480/NRE-Luc cells, 50 ng/mL TNFα, luciferase expression.

For orientation: IC50 means the concentration needed to halve the response being measured. As for `COc1cc2c3c(c4ccc(O)cc4c2c(OC)c1OC)[C@H](O)[C@@H]1CCCN1C3.Cl` [Compound 1, (12aS,13S)-5,6,7-trimethoxy-9,10,11,12,12a,13-hexahydro-9a-aza-cyclopenta[b]triphenylene-3,13-diol hydrochloride], the IC50 in data set [1] is 1.97 µg/mL; in data set [2] it was 0.637 µg/mL; in data set [4] (setting [7]), above 10 µg/mL; in data set [5] (setting [8]), 0.668 µg/mL; in data set [6], 0.56 µg/mL. The Mortality rate in data set [3] (total dose 25 mg/kg) and in data set [3] (total dose 50 mg/kg) was 0/5 in each case.
For `COc1cc2c3c(c4ccc(O)cc4c2c(OC)c1OC)[C@@H](O)[C@H]1CCCN1C3.Cl` [Compound 2, (12aR,13R)-5,6,7-trimethoxy-9,10,11,12,12a,13-hexahydro-9a-aza-cyclopenta[b]triphenylene-3,13-diol hydrochloride], the half-maximal inhibitory concentration (IC50) in data set [1] was 0.0036 µg/mL; in data set [2] it was 0.0047 µg/mL; in data set [4] (setting [7]) it was above 1 µg/mL; in data set [5] (setting [8]), 0.001 µg/mL; in data set [6], 0.0025 µg/mL.
As to `Cl.Oc1ccc2c3c(c4ccccc4c2c1)CN1CCC[C@H]1[C@H]3O` [Compound 3, (12aS,13S)-9,10,11,12,12a,13-hexahydro-9a-aza-cyclopenta[b]triphenylene-3,13-diol hydrochloride], the concentration for half-maximal inhibition (IC50) is 0.405 µg/mL in data set [1]; 0.14 µg/mL in data set [2]; above 10 µg/mL in data set [4] (setting [7]); 0.173 µg/mL in data set [5] (setting [8]); 0.107 µg/mL in data set [6]. The Mortality rate in data set [3] (total dose 25 mg/kg) and in data set [3] (total dose 50 mg/kg) was 0/5 in each case.
For the compound `Cl.Oc1ccc2c3c(c4ccc(F)cc4c2c1)CN1CCC[C@H]1[C@H]3O` [Compound 4, (12aS,13S)-6-fluoro-9,10,11,12,12a,13-hexahydro-9a-aza-cyclopenta[b]triphenylene-3,13-diol hydrochloride], the half-inhibitory concentration (IC50) in data set [1] is 0.503 µg/mL; in data set [2] it was 0.218 µg/mL; in data set [4] (setting [7]) it was above 10 µg/mL; in data set [5] (setting [8]), 0.286 µg/mL; in data set [6], 0.152 µg/mL.
Regarding `COc1cc2c3c(c4ccc(O)cc4c2cc1OC)C(N)[C@@H]1CCCN1C3.Cl` (stereo partly drawn) [Compound 7, (S)-13-amino-6,7-dimethoxy-9,10,11,12,12a,13-hexahydro-9a-aza-cyclopenta[b]triphenylene-3-ol hydrochloride], the IC50 in data set [1] was 2.34 µg/mL; in data set [2] it was 0.243 µg/mL; in data set [4] (setting [7]) it was above 10 µg/mL; in data set [5] (setting [8]), 0.468 µg/mL; in data set [6], 0.265 µg/mL.
Regarding `CCOc1cc2c3c(c4ccc(O)cc4c2cc1OCC)C[C@@H]1CCCN1C3.Cl` [Compound 14, (S)-6,7-diethoxy-9,10,11,12,12a,13-hexahydro-9a-aza-cyclopenta[b]triphenylene-3-ol hydrochloride], the IC50 in data set [1] is 0.0154 µg/mL; in data set [2], 0.0121 µg/mL; in data set [4] (setting [7]), above 1 µg/mL; in data set [5] (setting [8]), 0.0047 µg/mL; in data set [6] it was 0.0021 µg/mL.
Regarding `COc1cc2c3c(c4ccc(O)c(Cl)c4c2cc1OC)C[C@@H]1CCCN1C3.CS(=O)(=O)O` [Compound 22, (S)-4-chloro-6,7-dimethoxy-9,10,11,12,12a,13-hexahydro-9a-aza-cyclopenta[b]triphenylene-3-ol methanesulfonate], the “SW480 proliferation inhibitory action IC50” value in data set [1] stood at 0.0006 µg/mL. In addition, in data set [2], the “HT-29 proliferation inhibitory action IC50” value was found to be 0.0041 µg/mL. Further, in data set [4] (setting [9]), the “SV40 promoter inhibitory activity IC50” value was above 0.1 µg/mL. Also, in data set [5] (setting [10]), the “NFκB inhibitory activity IC50” value amounted to 0.00041 µg/mL. Moreover, in data set [6], the “A549 proliferation inhibitory action IC50” value amounted to 0.00071 µg/mL.
Consider `COc1cc2c3c(c4cc(C)c(O)c(C)c4c2cc1OC)C[C@@H]1CCCN1C3.CS(=O)(=O)O` [Compound 26, (S)-6,7-dimethoxy-2,4-dimethyl-9,10,11,12,12a,13-hexahydro-9a-aza-cyclopenta[b]triphenylene-3-ol methanesulfonate], for which the “SW480 proliferation inhibitory action IC50” value in data set [1] is 0.0321 µg/mL. The “HT-29 proliferation inhibitory action IC50” value in data set [2] is 0.05 µg/mL. In data set [4] (setting [9]), the “SV40 promoter inhibitory activity IC50” value is above 10 µg/mL. Further, the “NFκB inhibitory activity IC50” value in data set [5] (setting [10]) amounted to 0.0597 µg/mL. The “A549 proliferation inhibitory action IC50” value in data set [6] amounted to 0.1002 µg/mL.
As for `COc1ccc2c3c(c4cc(OC)c(OC)cc4c2c1)CN1CCC[C@H]1[C@H]3O` [Known Compound 2, (12aS,13S)-3,6,7-trimethoxy-9,10,11,12,12a,13-hexahydro-9a-aza-cyclopenta[b]triphenylene-13-ol, reference compound], the Mortality rate in data set [3] (total dose 25 mg/kg, 25 mg/kg) is 2/5; in data set [3] (total dose 25 mg/kg, listed as known compound 2, 25 mg/kg) it was “some of the mice also died”; in data set [3] (total dose 50 mg/kg, 50 mg/kg), 5/5; in data set [3] (total dose 50 mg/kg, listed as known compound 2, 50 mg/kg) it was “all the mice died”.
For `COc1cc2c3c(c4ccc(O)cc4c2cc1OC)[C@H](O)[C@@H]1CCCN1C3` [Known compound 1, (12aS,13S)-6,7-dimethoxy-9,10,11,12,12a,13-hexahydro-9a-aza-cyclopenta[b]triphenylene-3,13-diol, reference compound], the Mortality rate in data set [3] (total dose 25 mg/kg) is listed as 0/5; in data set [3] (total dose 50 mg/kg, 50 mg/kg), 5/5; in data set [3] (total dose 50 mg/kg, listed as known compound 1, 50 mg/kg), “all the mice died”.
In the case of `S=C(S)N1CCCC1` [PDTC, pyrrolidine dithiocarbamate, reference compound], the half-inhibitory concentration (IC50) in data set [4] (SW480/SV40-Luc cells, luciferase expression, read-out: SV40 promoter inhibitory activity IC50) is above 10 µg/mL; in data set [5] (SW480/NRE-Luc cells, 50 ng/mL TNFα, luciferase expression, read-out: NFκB inhibitory activity IC50) it was 2.4 µg/mL (≈ 16.3 µM).
For the compound “(S)-2-chloro-6,7-dimethoxy-9,10,11,12,12a,13-hexahydro-9a-aza-cyclopenta[b]triphenylene-3-ol methanesulfonate [Compound 21]”, in data set [1], the “SW480 proliferation inhibitory action IC50” value amounted to 0.0067 µg/mL. Besides, the “HT-29 proliferation inhibitory action IC50” value in data set [2] is 0.0068 µg/mL. Also, the “SV40 promoter inhibitory activity IC50” value in data set [4] (setting [9]) was above 1 µg/mL. Further, the “NFκB inhibitory activity IC50” value in data set [5] (setting [10]) worked out at 0.0054 µg/mL. Also, in data set [6], the “A549 proliferation inhibitory action IC50” value is 0.008 µg/mL.
On to “(S)-2-fluoro-6,7-dimethoxy-9,10,11,12,12a,13-hexahydro-9a-aza-cyclopenta[b]triphenylene-3-ol methanesulfonate [Compound 25]”, for which the “SW480 proliferation inhibitory action IC50” value in data set [1] came to 0.0031 µg/mL. For the same compound, in data set [2], the “HT-29 proliferation inhibitory action IC50” value amounted to 0.007 µg/mL. Besides, in data set [4] (setting [9]), the “SV40 promoter inhibitory activity IC50” value was above 1 µg/mL. Besides, in data set [5] (setting [10]), the “NFκB inhibitory activity IC50” value amounted to 0.0016 µg/mL. In addition, the “A549 proliferation inhibitory action IC50” value in data set [6] was 0.0026 µg/mL.
